US5273985A, “Glycerin derivative and its pharmacological use” (Eisai Co., Ltd., priority 1988, dated 1993)

Key:
[1] = test system: platelet agglutination caused by PAF; assay: Inhibition of platelet agglutination caused by human PAF (platelet-rich plasma, optical method of Born); assay type: cell-based; conditions: PAF at minimum concentration for maximum agglutination, read-out: Agglutination inhibiting activity IC50
Method: Effect on the Agglutination Caused by Human PAF
One part by volume of a 3.8% sodium citrate solution was added to 9 parts by volume of blood sampled from the forearm of a healthy adult to whom had been administered no medicine for at least two weeks. A platelet-rich plasma (PRP) was prepared by centrifugation. The inhibition of the platelet agglutination was determined by an optical method of Born et al. with a Hematolaser II® (a platelet agglutination meter of Niko Bioscience Co.). PAF was dissolved in Tyrode solution [Ca^++ (+)] to form a solution having the minimum concentration for causing the maximum agglutination. The test compound was dissolved in a physiological saline.
The agglutination inhibiting activity of the test compound was determined from the rate of inhibition of the maximum light transmittance (maximum agglutination rate) caused by PAF in control PRP. IC50 was determined from the inhibition curve.
The numeral in the column of the Test compound in Table 1 refers to the Example number of the compound.

[2] = molecular target: T1, Human PAF Receptor (Homo sapiens, UniProt P25105); assay: Human PAF receptor binding assay (3H-PAF, platelets); conditions: 3H-PAF 0.6 to 1 nM, 37° C., read-out: PAF receptor antagonism IC50
T1 construct: The platelets were sampled from healthy males by an ordinary method; endogenous in cells; host or cells: human platelets from healthy males (intact platelet suspension)
T1 sequence (P25105 whole entry): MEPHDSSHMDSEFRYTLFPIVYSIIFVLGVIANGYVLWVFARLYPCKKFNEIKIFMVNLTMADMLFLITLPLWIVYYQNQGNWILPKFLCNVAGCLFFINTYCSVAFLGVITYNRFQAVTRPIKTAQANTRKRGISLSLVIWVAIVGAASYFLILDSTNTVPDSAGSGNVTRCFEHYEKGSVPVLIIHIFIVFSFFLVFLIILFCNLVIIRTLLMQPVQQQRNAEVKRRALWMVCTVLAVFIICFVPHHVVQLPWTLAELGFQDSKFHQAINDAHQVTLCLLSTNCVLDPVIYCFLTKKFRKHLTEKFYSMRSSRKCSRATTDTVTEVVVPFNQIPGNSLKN
Method: Human PAF Receptor Binding Assay
The platelets were sampled from healthy males by an ordinary method and suspended in a binding buffer [10 mM phosphate-buffered saline (pH 7.0) containing 0.1 w/v % of BSA and 0.9 mM of CaCl2) to form a suspension having a concentration of 10^8 /460 μl. 20 μl of a solution of the test compound in the binding buffer was placed in a polypropylene tube and then 460 μl of the platelet suspension was added thereto. The mixture was subjected to a vortex treatment and then incubated at 37° C. for 6 min. 20 μl of a solution of ^3 H-PAF in the binding buffer (final ^3 H-PAF concentration: 0.6 to 1 nM) was added thereto and the mixture was incubated for 6 min. 3 ml of a washing solution (saline containing 0.1 w/v % of BSA) cooled with ice was added thereto to terminate the reaction. The reaction mixture was filtered by suction through a glass filter (Whatman GF/C). The glass filter was dried and the radioactivity thereof was determined with a liquid scintillation counter.
The inhibition % was calculated according to the following equation and IC50 so was determined by interpolation from the figure. [formula] wherein: total binding: dpm obtained when the concentration of the medicine or PAF is 0,
non-specific binding: dpm obtained when 10^-5 M of cold PAF was added.

[3] = test system: lethal activity of PAF; assay: Preventive effect against the lethal activity of PAF; assay type: in vivo, ICR male mice; conditions: 15 minutes before PAF i.v.; for number of dead mice / number of mice (Survival rate): after one hour; for Survival rate: survival after one hour
Method: Preventive Effect Against the Lethal Activity of PAF:
A physiological saline or the test compound was given to ICR male mice weighing around 30 g by intravenous injection. After 15 minutes, 100 wg/kg of PAF was given to them by intravenous injection. Life and death of them were examined after one hour and the survival rate was determined.
The survival rate is given by percentage. The denominator of the fraction
is the number of the mice and the numerator is the number of the dead

[4] = test system: blood pressure drop induced by PAF; assay: Action on the blood pressure drop induced by PAF; assay type: in vivo, F344 rats; conditions: Rattus norvegicus, iv, 0.05 h; 0.01 mg/kg, i.v., three minutes after 0.5 μg/kg PAF; ratio of blood pressure rise to drop; read-out: Recovery rate
Method: Action on the Blood Pressure Drop Induced by […]
Cannulae were inserted into the carotid and the jugular of each of F344 rats anesthetized with Pento (50 mg/kg, i. p.). The blood pressure was determined at the carotid and 0.5 ml/kg of PAF or the test compound was given through the jugular. Three minutes after the injection of 0.5 μg/kg of PAF, the test compound was given and the antagonism thereof was evaluated.
The recovery rate shown in Table 4 is the ratio of the blood pressure rise by the test compound to the drop thereof.

[5] = Determination of stability in aqueous solution; assay type: physicochemical; conditions: pH 7.4, 37° C., 0.5M sodium phosphate; read-out: Half-value period of disappearance due to hydrolysis (t1/2) (converted)
Method: Determination of Stability in Aqueous Solution
These compounds were unstable in a neutral or alkaline aqueous solution mainly due to the hydrolysis reaction of the N-acetyl or N-benzoyl group. The relationships between the pH and decomposition rate of several compounds were examined to find that they have the same pattern. The decomposition rate constant under conditions (pH 7.4, 37° C.) where they were relatively easily decomposed was determined and the stabilities of the compounds were compared with one another.
9 parts by volume of a buffer solution (0.5M sodium phosphate, pH 7.4) was added to 1 part by volume of an aqueous sample solution (1 mg/ml) and the mixture was kept at 37° C. The sampling was conducted at appropriate time intervals and the residual rate of an unreacted compound was determined by reversed phase high-performance liquid chromatography. Since the decomposition rate of most of the compounds can be approximately represented by the first-order decomposition rate equation, the decomposition rate constant was determined by the least squares method.

SMILES | IC50 [1] [nM] | IC50 [2] [nM] | number of dead mice / number of mice (Survival rate) ([3]; 0.03 mg/kg i.v.) | Survival rate ([3]; 0.03 mg/kg i.v.) [%] | number of dead mice / number of mice (Survival rate) ([3]; 0.1 mg/kg i.v.) | Survival rate ([3]; 0.1 mg/kg i.v.) [%] | number of dead mice / number of mice (Survival rate) ([3]; 0.3 mg/kg i.v.) | Survival rate ([3]; 0.3 mg/kg i.v.) [%] | inhibition in vivo at 0.01 mg/kg [4] [%] | half-life [5] [h]
CCCCCCCCCCCCCCCCCCNC(=O)OC1CCN(C(=O)OCC(COC(=O)N(Cc2cccc[n+]2CC)C(=O)c2ccccc2OC)OC)CC1 (stereo not shown) [Example 15, 1-Ethyl-2-[N-(2-methoxy)benzoyl-N-{2-methoxy-3-(4-octadecylcarbamoyloxy)piperidinocarbonyloxypropyloxyl}carbonyl]aminomethylpyridinium chloride] | 80 | 0.19 | 2/7 | 71.4 | 3/7 | 57.1 | 0/7 | 100 | 94.6 | 24.4
CCCCCCCCCCCCCCCCCCNC(=O)OCCCNC(=O)OCC(COC(=O)N(Cc1cccc[n+]1CC)C(=O)c1ccccc1OC)OC (stereo not shown) [Example 14, 1-Ethyl-2-[N-(2-methoxy)benzoyl-N-{2-methoxy-3-(3-octadecylcarbamoyloxy)propylcarbamoyloxy}propoxycarbonyl]aminomethylpyridinium chloride] | 44 | 0.19 |  |  |  |  |  |  | 96.8 | 26.1
CCCCCCCCCCCCCCCCCCNS(=O)(=O)c1ccc(CNC(=O)OCC(COC(=O)N(Cc2cccc[n+]2CC)C(=O)c2ccccc2OC)OC)cc1 (stereo not shown) [Example 13, 1-Ethyl-2-[N-(2-methoxy)benzoyl-N-{2-methoxy-3-(4-octadecylsulfamoyl)benzylcarbamoyloxypropyloxy}carbonyl]aminomethylpyridinium chloride] | 72 | 0.25 | 3/7 | 57.1 | 0/7 | 100 | 0/7 | 100 | 89.7 | 21.5
CCCCCCCCCCCCCCCCCCOC(=O)N1CCN(C(=O)OCC(COC(=O)N(Cc2cccc[n+]2CC)C(=O)c2ccccc2OC)OC)CC1 (stereo not shown) [Example 6, 1-Ethyl-2-[N-(2-methoxy)benzoyl-N-{2-methoxy-3-(4-octadecyloxycarbonyl)piperazylcarbonyloxy}propoxycarbonyl]aminomethylpyridinium chloride] | 160 | 0.19 |  |  |  |  |  |  | 88.5 | 28.2
